In patent publication US20040076954A1, “Genomics-driven high speed cellular assays, development thereof, and collections of cellular reporters” (IRM, LLC, priority 2001, published 2004):

Experiments:
[1] = test system: Mouse macrophage cell line RAW264.7; test: Antibiotic selection of transfected RAW264.7 cells; format: cell-based; details: transfected RAW cells
Experimental: Mouse macrophage cell line RAW264.7 from the ATCC was used for reporter gene assays. RAW cells were cultured at 37° C. in Dulbecco's modified Eagle medium (GibcoBRL), supplemented with 10% defined fetal bovine serum (low endotoxin, Hyclone). Transient transfection was carried out in 6 well plates with SuperFect Transfection Reagent (Qiagen) using the protocol provided by the supplier. In brief, 6×10^5 cells were seeded in each well the day before transfection. 2 μg of DNA and 10 μl of SuperFect reagent were added to the cells. For the purposed of selecting stable cell lines, vectors containing antibiotic resistant genes (e.g. hygromycin, puromycin and blasticidin) were also included at a ratio of 1:5 or 1:10 to the reporter DNA. 48 hours post-transfection, the cells were transferred into 10 cm dishes. An antibiotic was added at 150 μg/ml of hygromycin, 400 ng/ml of puromycin, or 3 μg/ml of blasticidin. […] Two weeks later, the cells which sustained antibiotic selection were seeded into three 96 well plates at the density of 0.3 cell/well. After 3-4 weeks, 44 single clones each of MALH (hygromycin) and MALB (blasticidin) were harvested and assayed. Pools of MALH or MALB were also combined for population experiments. The total selection time was 5-6 weeks.

[2] = test system: HepG2 (human hepatoma cells); test: Gene chip (Affymetrix) expression profiling of HGF-treated hepatocyte cells; format: cell-based; details: HepG2, 75 ng/ml HGF 4 hours vs untreated
Experimental: A method assessing the responsiveness of gene transcript to Hepatocyte Growth Factor (HGF) in a human hepatocyte cell line is exemplified.
Human hepatocyte cells, HepG2 (human hepatoma cells ATCC accession no. HB-8065), were plated at 8×10^5 cells per ml in a 4 separate wells of a 6-well plate and incubated overnight at 37° C., 5% CO2. Eighteen hours after plating, 2 wells of cells were treated with 75 ng/ml of HGF continuously for 4 hours, while two samples were left untreated. Cells were harvested by 1×PBS wash, scraped into a 15 ml conical tube and placed on ice. Samples were centrifuged to pellet the cells, flash frozen on dry ice and submitted for RNA extraction.
The following protocol was used to isolate total RNA from the 2 untreated and 2 treated samples:
The following protocol was used to generate cDNA then cRNA from the total RNA preparation:
The following protocol was used to hybridize the cRNA to gene chips (Affymetrix):
Following the hybridization, the chips are analyzed for relative fluorescence intensity corresponding to each set of oligonucleotides. The location of each oligonucleotide and the gene it represents on the array is known. Using, for example, Microsoft Excel, a list of each oligonucleotide, corresponding gene and relative intensity are recorded and saved. The data sets for treated and untreated are compared side-by-side for average-fold change. The resulting list is parsed by magnitude fold-change and can be represented as text (Excel), or visually (Gene-Spring or Tree-view).
The following details the results of a chip study. […] The list begins with the greatest fold induction (FC) and ends with greatest fold repression.

CN(CC[C@H](N)CC(=O)N[C@H]1C=C[C@H](n2ccc(N)nc2=O)O[C@@H]1C(=O)O)C(=N)N [blasticidin]
cell death within 3 days of antibiotic selection ([1]; 3 μg/ml blasticidin): Massive cell death

COc1ccc(C[C@H](N)C(=O)N[C@H]2[C@@H](O)[C@H](n3cnc4c(N(C)C)ncnc43)O[C@@H]2CO)cc1 [puromycin]
cell death within 3 days of antibiotic selection ([1]; 400 ng/ml puromycin): not

Hepatocyte Growth Factor [HGF]
FC (fold change) 277_at myeloid cell differentiation protein (MCL1) (L08246) [2]: 6 fold | FC (fold change) 529_at dual-specificity protein phosphatase (U15932) [2]: 5 fold | FC (fold change) 660_at mitochondrial 1,25-dihydroxyvitamin D3 24-hydroxylase (L13286) [2]: 9 fold | FC (fold change) 1237_at IEX-1 radiation-inducible immediate-early gene (S81914) [2]: 8 fold | FC (fold change) 1379_at HUMECK protein tyrosine kinase (M59371) [2]: 8 fold | FC (fold change) 1890_at TGF-beta superfamily protein (AB000584) [2]: 5 fold | FC (fold change) 2057_g_at fibroblast growth factor (FGF) receptor-1 (M34641) [2]: 5 fold | FC (fold change) 31888_s_at IPL (AF001294) [2]: 14 fold | FC (fold change) 32786_at jun-B (X51345) [2]: 7 fold | FC (fold change) 33146_at myeloid cell differentiation protein (MCL1) (L08246) [2]: 6 fold | FC (fold change) 34476_r_at epiregulin (D30783) [2]: 15 fold | FC (fold change) 34898_at amphiregulin (AR) (M30704) [2]: 13 fold | FC (fold change) 35372_r_at beta-thromboglobulin-like protein (M17017) [2]: 8 fold | FC (fold change) 35454_at KIAA0450 protein (AB007919) [2]: 5 fold | FC (fold change) 35597_at C8FW phosphoprotein (AJ000480) [2]: 7 fold | FC (fold change) 36097_at transcription factor ETR101 (M62831) [2]: 5 fold | FC (fold change) 36324_at A2b adenosine receptor (X68487) [2]: 6 fold | FC (fold change) 36344_at proteinase-activated receptor-2 (U34038) [2]: 7 fold | FC (fold change) 36345_g_at proteinase-activated receptor-2 (U34038) [2]: 8 fold | FC (fold change) 36543_at placental tissue factor (J02931) [2]: 7 fold | FC (fold change) 36711_at novel MAFF LIKE protein (AL021977) [2]: 8 fold | FC (fold change) 36742_at putative zinc finger protein (ZNFB7) (U34249) [2]: 5 fold | FC (fold change) 37680_at gravin (U81607) [2]: 7 fold | FC (fold change) 38125_at beta-migrating plasminogen activator inhibitor I (M14083) [2]: 13 fold | FC (fold change) 38247_at proteinase activated receptor-2 mRNA, 3UTR (U67058) [2]: 9 fold | FC (fold change) 38772_at CYR61 (Y11307) [2]: 9 fold | FC (fold change) 39105_at vasodilator-stimulated phosphoprotein (VASP) (Z46389) [2]: 11 fold | FC (fold change) 39248_at za55a01.s1 cDNA (N74607) [2]: 6 fold | FC (fold change) 40385_at chemokine exodus-1 mRNA (U64197) [2]: 19 fold | FC (fold change) 40614_at SHB (X75342) [2]: 8 fold | FC (fold change) 41193_at DUSP6 (AB013382) [2]: 6 fold | FC (fold change) 41524_at inositol polyphosphate 1-phosphatase (L08488) [2]: 6 fold | FC (fold change) 1974_s_at p53 cellular tumor antigen (X02469) ([2]; negative = repression): −5 fold | FC (fold change) 2089_s_at H06628 similar to ERBB-3 receptor protein-tyrosine kinase precursor ([2]; negative = repression): −5 fold | FC (fold change) 32787_at epidermal growth factor receptor (HER3) (M34309) ([2]; negative = repression): −8 fold | FC (fold change) 36048_at HRIHFB2436 (AB015342) ([2]; negative = repression): −5 fold | FC (fold change) 37487_at KIAA1093 protein (AB029016) ([2]; negative = repression): −5 fold
